Assay results published in ChEMBL document CHEMBL4414666, “Structure-Activity Relationships of Pentacyclic Triterpenoids as Inhibitors of Cyclooxygenase and Lipoxygenase Enzymes” (J Nat Prod, 2019).

How the values were obtained:
[1] = molecular target: T1, Polyunsaturated fatty acid 5-lipoxygenase (Homo sapiens) (UniProt P09917); assay: Inhibition of human recombinant 5-LOX expressed in insect cells assessed residual activity using arachidonic acid at 42 uM as substrate preincubated for 5 mins followed by substrate addition measured after 20 mins in dark by ferric ion oxidation-xylenol orange method relative to control
T1 sequence (whole entry): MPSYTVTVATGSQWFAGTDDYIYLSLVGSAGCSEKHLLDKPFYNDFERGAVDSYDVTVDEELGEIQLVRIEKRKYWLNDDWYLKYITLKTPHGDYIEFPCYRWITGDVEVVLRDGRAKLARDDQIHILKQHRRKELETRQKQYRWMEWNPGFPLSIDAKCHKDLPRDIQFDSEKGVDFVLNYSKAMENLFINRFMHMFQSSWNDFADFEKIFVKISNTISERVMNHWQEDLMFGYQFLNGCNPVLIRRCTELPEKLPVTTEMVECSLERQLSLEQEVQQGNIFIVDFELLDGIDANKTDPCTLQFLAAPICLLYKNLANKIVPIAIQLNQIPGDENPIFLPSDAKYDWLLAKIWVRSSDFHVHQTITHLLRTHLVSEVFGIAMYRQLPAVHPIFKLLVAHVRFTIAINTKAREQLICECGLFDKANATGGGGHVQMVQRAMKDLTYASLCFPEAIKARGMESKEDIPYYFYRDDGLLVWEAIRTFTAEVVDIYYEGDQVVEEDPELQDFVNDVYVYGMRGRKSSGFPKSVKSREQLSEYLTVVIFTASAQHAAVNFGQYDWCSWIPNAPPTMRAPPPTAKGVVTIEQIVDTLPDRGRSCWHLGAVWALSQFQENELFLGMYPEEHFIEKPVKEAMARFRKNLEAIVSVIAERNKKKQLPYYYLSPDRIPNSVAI

[2] = molecular target: T2, Polyunsaturated fatty acid lipoxygenase ALOX15B (Homo sapiens, UniProt O15296); assay: (§1) Inhibition of human recombinant N-terminal His-tagged 15-LOX2 expressed in Escherichia coli using arachidonic acid as substrate preincubated for 5 mins followed by substrate addition measured after 20 mins in dark by ferric ion oxidation-xylenol orange assay
T2 sequence (O15296 whole entry): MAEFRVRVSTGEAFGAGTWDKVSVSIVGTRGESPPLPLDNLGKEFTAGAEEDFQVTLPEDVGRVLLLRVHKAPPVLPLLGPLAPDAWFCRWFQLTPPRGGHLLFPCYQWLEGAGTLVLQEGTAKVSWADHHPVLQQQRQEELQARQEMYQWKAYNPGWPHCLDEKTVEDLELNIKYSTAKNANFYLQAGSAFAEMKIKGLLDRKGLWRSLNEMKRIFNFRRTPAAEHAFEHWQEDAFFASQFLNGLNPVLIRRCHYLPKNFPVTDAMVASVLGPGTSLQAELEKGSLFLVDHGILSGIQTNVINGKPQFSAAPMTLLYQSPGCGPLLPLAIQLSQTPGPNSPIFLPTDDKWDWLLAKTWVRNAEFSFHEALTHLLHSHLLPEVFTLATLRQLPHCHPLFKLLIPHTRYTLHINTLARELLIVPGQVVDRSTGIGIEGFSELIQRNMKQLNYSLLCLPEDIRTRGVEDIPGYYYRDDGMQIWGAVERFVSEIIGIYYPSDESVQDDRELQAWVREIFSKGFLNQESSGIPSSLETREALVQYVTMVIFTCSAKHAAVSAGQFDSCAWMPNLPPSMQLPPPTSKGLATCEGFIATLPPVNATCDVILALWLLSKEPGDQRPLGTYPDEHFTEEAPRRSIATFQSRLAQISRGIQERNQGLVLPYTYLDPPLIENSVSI

[3] = molecular target: T3, Prostaglandin G/H synthase 2 (Homo sapiens, UniProt P35354); assay: biochemical; assay type: cell-based, Sf21;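 note: recombinant enzyme produced in baculovirus-infected Sf21 cells, arachidonic acid substrate, PGE2 output quantified by LC-MS after 45 min, compounds preincubated 10 min beforehand, lower PGE2 means inhibition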
T3 sequence (P35354 whole entry): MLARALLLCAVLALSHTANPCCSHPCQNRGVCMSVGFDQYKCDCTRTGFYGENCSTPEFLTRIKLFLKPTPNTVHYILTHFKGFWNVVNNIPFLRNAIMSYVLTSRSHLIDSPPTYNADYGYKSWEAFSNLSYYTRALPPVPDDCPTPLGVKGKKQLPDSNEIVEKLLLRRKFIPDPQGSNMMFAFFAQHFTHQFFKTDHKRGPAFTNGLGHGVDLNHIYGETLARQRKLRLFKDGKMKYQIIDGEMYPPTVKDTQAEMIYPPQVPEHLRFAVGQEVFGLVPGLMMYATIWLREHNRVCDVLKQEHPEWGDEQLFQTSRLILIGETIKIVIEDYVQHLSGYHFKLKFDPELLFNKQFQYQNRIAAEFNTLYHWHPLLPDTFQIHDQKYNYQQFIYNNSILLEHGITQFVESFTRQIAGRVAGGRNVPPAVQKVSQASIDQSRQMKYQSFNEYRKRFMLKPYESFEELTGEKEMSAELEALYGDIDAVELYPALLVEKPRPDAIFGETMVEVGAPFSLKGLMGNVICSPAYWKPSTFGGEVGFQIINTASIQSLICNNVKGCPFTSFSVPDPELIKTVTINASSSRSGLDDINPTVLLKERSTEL
Description: Inhibition of human recombinant COX2 expressed in baculovirus infected sf21 cells assessed as decrease in PGE2 formation using arachidonic acid as substrate preincubated for 10 mins followed by substrate addition measured after 45 mins by LC-MS analysis

[4] = molecular target: T4, Polyunsaturated fatty acid 5-lipoxygenase (Homo sapiens, UniProt P09917); assay: Inhibition of human recombinant 5-LOX expressed in insect cells assessed as decrease in production of 5-HPETE and 5-HETE using arachidonic acid as substrate preincubated for 5 mins followed by substrate addition measured after 20 mins in dark by ferric ion oxidation-xylenol orange method
T4 sequence (P09917 whole entry): T1 sequence (whole entry)

[5] = molecular target: T5, Polyunsaturated fatty acid lipoxygenase ALOX15B (Homo sapiens) (UniProt O15296); assay: as §1, with “coli assessed as residual activity at 42 uM” for “coli”, “assay relative to control” for “assay”
T5 sequence (whole entry): T2 sequence (O15296 whole entry)

[6] = molecular target: T6, Prostaglandin G/H synthase 1 (Ovis aries, UniProt P05979);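 note: recombinant ovine COX1 enzyme, PGE2 formed from arachidonic acid quantified by LC-MS, 10 min inhibitor preincubation then 45 min reaction, inhibition seen as reduced PGE2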
T6 sequence (P05979 whole entry): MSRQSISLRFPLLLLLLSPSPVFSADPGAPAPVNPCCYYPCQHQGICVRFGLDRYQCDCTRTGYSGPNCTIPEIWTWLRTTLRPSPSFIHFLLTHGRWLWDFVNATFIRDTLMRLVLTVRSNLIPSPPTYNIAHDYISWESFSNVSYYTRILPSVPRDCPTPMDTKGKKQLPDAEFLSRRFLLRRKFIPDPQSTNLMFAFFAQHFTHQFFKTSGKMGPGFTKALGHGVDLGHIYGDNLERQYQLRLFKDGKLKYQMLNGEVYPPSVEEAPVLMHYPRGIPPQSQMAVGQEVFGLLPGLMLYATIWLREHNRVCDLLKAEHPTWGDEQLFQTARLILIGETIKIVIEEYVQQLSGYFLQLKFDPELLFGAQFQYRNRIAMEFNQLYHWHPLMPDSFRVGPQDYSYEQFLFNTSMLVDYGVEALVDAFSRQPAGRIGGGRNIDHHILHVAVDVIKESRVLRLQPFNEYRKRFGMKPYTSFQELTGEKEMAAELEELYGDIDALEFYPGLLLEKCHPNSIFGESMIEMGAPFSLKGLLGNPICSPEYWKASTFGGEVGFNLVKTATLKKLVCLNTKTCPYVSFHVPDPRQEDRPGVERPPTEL
Description: Inhibition of ovine recombinant COX1 assessed as decrease in formation of PGE2 using arachidonic acid as substrate preincubated for 10 mins followed by substrate addition measured after 45 mins by LC-MS analysis

Row | SMILES | Activity [1] | IC50 [2] | IC50 ([3]; read-out: IC50) | IC50 ([4]; read-out: IC50) | Activity [5] | IC50 ([2]; read-out: IC50) | IC50 [6] | IC50 [4] | IC50 ([3]; sf21)
1 | C[C@H]1[C@H](C)CC[C@]2(C)CC[C@]3(C)C(=CC(=O)[C@@H]4[C@@]5(C)CC[C@@H](O)[C@](C)(C(=O)O)[C@@H]5CC[C@]43C)[C@H]12 [11-KETO BOSWELLIC ACID] | 31.9% | Not Active | > 40 µM | 28.3 µM | 100% |  |  |  | 
2 | CC1(C)[C@@H](O)CC[C@]2(C)[C@H]3CC=C4[C@@H]5C[C@@](C)(C(=O)O)CC[C@]5(C)CC[C@@]4(C)[C@]3(C)CC[C@@H]12 | 49% | Not Active | > 40 µM |  | 100% |  |  |  | 
3 | C[C@H]1[C@H](C)CC[C@]2(C(=O)O)CC[C@]3(C)C(=CC[C@@H]4[C@@]5(C)CC[C@H](O)C(C)(C)[C@@H]5CC[C@]43C)[C@H]12 [URSOLIC ACID] | 64% |  | > 40 µM | > 40 µM | 63.6% | > 40 µM |  |  | 
4 | CC(=O)O[C@@H]1CC[C@@]2(C)[C@@H](CC[C@]3(C)[C@@H]2C(=O)C=C2[C@@H]4[C@@H](C)[C@H](C)CC[C@]4(C)CC[C@]23C)[C@@]1(C)C(=O)O [AKBA] | 41.2% |  | > 40 µM | 35.6 µM | 81.7% | > 40 µM |  |  | 
5 | C[C@H]1[C@H](C)CC[C@]2(C(=O)O)CC[C@]3(C)C(=CC[C@@H]4[C@@]5(C)C[C@@H](O)[C@H](O)C(C)(C)[C@@H]5CC[C@]43C)[C@H]12 [COROSOLIC ACID] | 66.7% | Not Active | > 40 µM | > 40 µM | 100% |  |  |  | 
6 | CC1(C)CC[C@]2(C(=O)O)CC[C@]3(C)C(=CC[C@@H]4[C@@]5(C)C[C@H](O)[C@H](O)[C@@](C)(CO)[C@@H]5CC[C@]43C)[C@@H]2C1 | 71.9% | Not Active | > 40 µM | > 40 µM | 100% |  | Not Active |  | 
7 | CC1(C)[C@@H](O)CC[C@]2(C)[C@H]3CC=C4[C@@H]5C[C@@](C)(CO)CC[C@]5(C)CC[C@@]4(C)[C@]3(C)CC[C@@H]12 | 34.8% | Not Active | > 40 µM | 31.8 µM | 100% |  | Not Active |  | 
8 | C[C@H]1[C@H](C)CC[C@]2(C)CC[C@]3(C)C(=CC[C@@H]4[C@@]5(C)CC[C@@H](O)[C@](C)(C(=O)O)[C@@H]5CC[C@]43C)[C@H]12 [BOSWELLIC ACID] | 53.4% | Not Active | > 40 µM | > 40 µM | 100% |  |  |  | 
9 | CC(Cc1ccc(O)c(O)c1)C(C)Cc1ccc(O)c(O)c1 (centres undefined) |  |  |  |  | 31.4% |  |  |  | 
10 | CC1(C)CC[C@]2(C)CC[C@]3(C)C(=CC[C@@H]4[C@@]5(C)CC[C@@H](O)[C@](C)(C(=O)O)[C@@H]5CC[C@]43C)[C@@H]2C1 | 48.7% | Not Active | > 40 µM |  | 100% |  |  |  | 
11 | CC1(C)CC[C@]2(C(=O)O)CC[C@]3(C)C(=CC[C@@H]4[C@@]5(C)CC[C@H](O)C(C)(C)[C@@H]5CC[C@]43C)[C@@H]2C1 [OLEANOLIC_ACID] | 100% | Not Active |  |  | 100% |  |  | Not Active | 
12 | C[C@H]1[C@H](C)CC[C@]2(C(=O)O)CC[C@]3(C)C(=CC[C@@H]4[C@@]5(C)C[C@@H](O)[C@H](O)[C@@](C)(CO)[C@@H]5CC[C@]43C)[C@H]12 [ASIATIC ACID] | 61.9% | Not Active | > 40 µM | > 40 µM | 100% |  |  |  | 
13 | CC(=O)O[C@@H]1CC[C@@]2(C)[C@@H](CC[C@]3(C)[C@@H]2CC=C2[C@@H]4[C@@H](C)[C@H](C)CC[C@]4(C)CC[C@]23C)[C@@]1(C)C(=O)O | 69.5% |  | > 40 µM | > 40 µM | 24.9% | 12.2 µM |  |  | 
14 | CC1(C)CC[C@]2(C)CC[C@]3(C)C(=CC[C@@H]4[C@@]5(C)CCC(=O)C(C)(C)[C@@H]5CC[C@]43C)[C@@H]2C1 | 100% | Not Active |  |  | 100% |  |  | Not Active | Not Active
15 | C[C@H]1[C@H](C)CC[C@]2(CO)CC[C@]3(C)C(=CC[C@@H]4[C@@]5(C)CC[C@H](O)C(C)(C)[C@@H]5CC[C@]43C)[C@H]12 [UVAOL] | 45% |  |  |  | 70.2% | > 40 µM | Not Active |  | Not Active
16 | CC1(C)CC[C@]2(C(=O)O)CC[C@]3(C)C(=CC[C@@H]4[C@@]5(C)C[C@@H](O)[C@H](O)C(C)(C)[C@@H]5CC[C@]43C)[C@@H]2C1 [MASLINIC ACID] | 62.9% | Not Active | > 40 µM | > 40 µM | 100% |  |  |  | 
17 | CC(=O)O[C@@H]1CC[C@@]2(C)[C@@H](CC[C@]3(C)[C@@H]2CC=C2[C@@H]4CC(C)(C)CC[C@]4(C)CC[C@]23C)[C@@]1(C)C(=O)O | 93.1% | Not Active | > 40 µM | > 40 µM | 100% |  |  |  | 
18 | CC1(C)CC[C@]2(C(=O)O)CC[C@]3(C)C(=CC[C@@H]4[C@@]5(C)C[C@@H](O)[C@H](O)[C@@](C)(CO)[C@@H]5CC[C@]43C)[C@@H]2C1 [ARJUNOLIC ACID] | 47.7% | Not Active | > 40 µM |  | 100% |  |  |  | 
